Assay [1] concerns the target T1, human cathepsin F (Homo sapiens, UniProt Q9UBX1).
T1 sequence (Q9UBX1 271-484): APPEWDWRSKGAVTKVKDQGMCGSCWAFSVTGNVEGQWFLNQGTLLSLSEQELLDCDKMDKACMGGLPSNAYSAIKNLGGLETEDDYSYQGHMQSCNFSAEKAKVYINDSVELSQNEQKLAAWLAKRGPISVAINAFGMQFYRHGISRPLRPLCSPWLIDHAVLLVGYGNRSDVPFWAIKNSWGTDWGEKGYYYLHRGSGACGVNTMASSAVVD
The experiment in a line: Cathepsin F assay (hCat F). The format is biochemical. The conditions noted are these: human cathepsin F 10 nM, Z-Phe-Arg-AMC 8 μM, pH 5.5, 15 min preincubation; read-out: hCat F IP. The gist of the method:
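Fluorogenic read-out: cleavage of Z-Phe-Arg-AMC (8 μM in added buffer) was followed at Ex 360/Em 460 nm for 20 min, with dose-response fitting of percent inhibition. Before substrate addition, 10 nM human enzyme was incubated 15 min at room temperature with compounds (DMSO stocks 500–0.025 μM) in pH 5.5 MES/EDTA/DTT buffer containing 10% DMSO.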

Assay [2] concerns the target human cathepsin K (UniProt P43236). The experiment in a line: Cathepsin K Assay (hrbCat K). The conditions noted are these: human cathepsin K 0.4 nM, Z-Leu-Arg-AMC 8 μM, pH 5.5, 15 min preincubation; read-out: hrbCat K IP. The format is biochemical. The gist of the method:
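Human cathepsin K (0.4 nM) in pH 5.5 MES buffer with EDTA, DTT and 10% DMSO was preincubated 15 min at room temperature with compound from a ⅓ dilution series (500-0.025 μM DMSO stocks). Z-Leu-Arg-AMC (8 μM) was then added, and AMC release was followed fluorometrically (Ex 360/Em 460 nm) for 30 min; inhibition was fitted to a dose-response model.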

Results on 21 molecules are retold here after patent US9458181B2, “Cathepsin cysteine protease inhibitors” (Merck Sharp & Dohme Corp., priority 2013, dated 2016).

Regarding `N#CC1(NC(=O)[C@@H]2CC(F)(F)CC[C@H]2c2oc(-c3ccc(F)cc3)nc2-c2ccc(C(=O)N3CCOCC3)cc2)CC1` [Example 24, (1R,2R)-N-(1-cyanocyclopropyl)-5,5-difluoro-2-(2-(4-fluorophenyl)-4-(4-(morpholine-4-carbonyl)phenyl)oxazol-5-yl)cyclohexanecarboxamide], the values for the IC50 in assay [1] and in assay [2] were 181 nM and 0.68 nM, respectively.
As to `N#CC1(NC(=O)[C@@H]2CCCC[C@H]2c2oc(-c3cncc(F)c3)nc2-c2ccc(N3CCS(=O)(=O)CC3)cc2)CC1` [Example 33, (1R,2R)-N-(1-cyanocyclopropyl)-2-(4-(4-(1,1-dioxidothiomorpholino)phenyl)-2-(5-fluoropyridin-3-yl)oxazol-5-yl)cyclohexanecarboxamide], the results for the IC50 in assay [1] and in assay [2] were 1320 nM and 1.99 nM, respectively.
Turning to `N#CC1(NC(=O)[C@@H]2CCCC[C@H]2c2oc(CC3CCCCC3)nc2-c2ccc(N3CCS(=O)(=O)CC3)cc2)CC1` [Example 51, (1R,2R)-N-(1-cyanocyclopropyl)-2-(2-(cyclohexylmethyl)-4-(4-(1,1-dioxidothiomorpholino)phenyl)oxazol-5-yl)cyclohcxanecarboxamide], the IC50 in assay [1] turned out to be 400 nM; in assay [2], 1.69 nM.
For `N#CC(NC(=O)[C@@H]1CC(F)(F)CC[C@H]1c1oc(C(F)(F)C(F)(F)F)nc1-c1ccc(C(=O)N2CCOCC2)cc1)C1CCOCC1` (single isomer, unassigned) [Example 144, (1R,2R)-N-((R or S)-cyano(tetrahydro-2H-pyran-4-yl)methyl)-5,5-difluoro-2-(4-(4-(morpholine-4-carbonyl)phenyl)-2-(perfluoroethyl)oxazol-5-yl)cyclohcxanccarboxamide] the same measures were ≥ 10000 nM and 1520 nM.
For the molecule `N#CC1(NC(=O)[C@@H]2CCCC[C@H]2c2oc(-c3cccc(C4CC4)c3)nc2-c2ccc(N3CCS(=O)(=O)CC3)cc2)CC1` [Example 77, (1R,2R)-N-(1-cyanocyclopropyl)-2-(2-(3-cyclopropylphenyl)-4-(4-(1,1-dioxidothiomorpholino)phenyl)oxazol-5-yl)cyclohexanecarboxamide], the IC50 in assay [1] came to 533 nM; in assay [2], 0.65 nM.
Regarding `N#CC1(NC(=O)[C@@H]2CCCC[C@H]2c2oc(-c3ncccn3)nc2-c2ccc(N3CCS(=O)(=O)CC3)cc2)CC1` [Example 90, (1R,2R)-N-(1-cyanocyclopropyl)-2-(4-(4-(1,1-dioxidothiomorpholino)phenyl)-2-(pyrimidin-2-yl)oxazol-5-yl)cyclohexanecarboxamide], the figures for the IC50 in assay [1] and in assay [2] were ≥ 10000 nM and 7.28 nM, respectively.
With `N#CC1(NC(=O)[C@@H]2CCCC[C@H]2c2oc(-c3ccc(C(F)(F)F)cc3)nc2-c2ccc(N3CCS(=O)(=O)CC3)cc2)CC1` [Example 65, (1R,2R)-N-(1-cyanocyclopropyl)-2-(4-(4-(1,1-dioxidothiomorpholino)phenyl)-2-(4-(trifluoromethyl)phenyl)oxazol-5-yl)cyclohexanecarboxamide], the IC50 in assay [1] was found to be 825 nM; in assay [2] it was 1.3 nM.
With `N#CC1(NC(=O)[C@@H]2CC(Cl)(Cl)CC[C@H]2c2oc(C(F)(F)C(F)(F)F)nc2-c2ccc(C(=O)N3CCOCC3)cc2)CC1` [Example 154, (1R,2R)-5,5-dichloro-N-(1-cyanocyclopropyl)-2-(4-(4-(morpholine-4-carbonyl)phenyl)-2-(perfluoroethyl)oxazol-5-yl)cyclohexanecarboxamide], the IC50 in assay [1] amounted to 259 nM; in assay [2], 0.68 nM.
Regarding `N#CC1(NC(=O)[C@@H]2C[C@@H](F)CC[C@H]2c2oc(C(F)(F)F)nc2-c2ccc(N3CCS(=O)(=O)CC3)cc2)CC1` [Example 146, (1R,2R,5S)-N-(1-cyanocyclopropyl)-2-(4-(4-(1,1-dioxidothiomorpholino)phenyl)-2-(trifluoromethyl)oxazol-5-yl)-5-fluorocyclohexane-carboxamide], the IC50 in assay [1] is 352 nM; in assay [2], 1.92 nM.
For the molecule `N#CC1(NC(=O)[C@@H]2CCCC[C@H]2c2oc(C3C4CC3C4)nc2-c2ccc(N3CCS(=O)(=O)CC3)cc2)CC1` (stereo partly drawn) [Example 98, (1R,2R)-2-(2-(bicyclo[1.1.1]pentan-2-yl)-4-(4-(1,1-dioxidothiomorpholino)phenyl)oxazol-5-yl)-N-(1-cyanocyclopropyl) cyclohexanecarboxamide], the IC50 in assay [1] came to 2310 nM; in assay [2], 1.43 nM.
On to `Cc1nc(-c2ccc(N3CCS(=O)(=O)CC3)cc2)c([C@@H]2CCC(F)(F)C[C@H]2C(=O)NC2(C#N)CC2)s1` [Example 59, (1R,2R)-N-(1-cyanocyclopropyl)-2-(4-(4-(1,1-dioxidothiomorpholino)phenyl)-2-methylthiazol-5-yl)-5,5-difluorocyclohexane-carboxamide], for which the IC50 in assay [1] came to 389 nM; in assay [2], 0.51 nM.
As to `COc1ccc(-c2nc(-c3ccc(N4CCS(=O)(=O)CC4)cc3)c([C@@H]3CCCC[C@H]3C(=O)NC3(C#N)CC3)o2)cc1` [Example 70], the IC50 in assay [1] was 734 nM; in assay [2], 1.84 nM.
On the same counts, the results for `N#CC1(NC(=O)[C@@H]2CCCC[C@H]2c2oc(-c3cccc(Cl)c3)nc2-c2ccc(N3CCS(=O)(=O)CC3)cc2)CC1` [Example 5, (1R,2R)-2-(2-(3-Chlorophenyl)-4-(4-thiomorpholino-1,1-dioxide-phenyl)oxazol-5-yl)-N-(1-cyanocyclopropyl)cyclohexanecarboxamide] are 507 nM and 0.56 nM.
Regarding `N#CC1(NC(=O)[C@@H]2CCCC[C@H]2c2oc(-c3ccc(C(F)(F)F)nc3)nc2-c2ccc(N3CCS(=O)(=O)CC3)cc2)CC1` [Example 40, (1R,2R)-N-(1-cyanocyclopropyl)-2-(4-(4-(1,1 dioxidothiomorpholino)phenyl)-2-(6-(trifluoromethyl)pyridin-3-yl)oxazol-5-yl)cyclohexane carboxamide], the IC50 is 2220 nM in assay [1] and 1.42 nM in assay [2].
Take `CS(=O)(=O)N1CCN(C(=O)c2ccc(-c3nc(-c4ccc(F)cc4F)oc3[C@@H]3CCCC[C@H]3C(=O)NC3(C#N)CC3)cc2)CC1` [Example 129, (1R,2R)-N-(1-cyanocyclopropyl)-2-(2-(2,4-difluorophenyl)-4-(4-(4-(mcthylsulfonyl)piperazine-1-carbonyl)phenyl)oxazol-5-yl)cyclohexanecarboxamide]: the IC50 in assay [1] worked out at 3930 nM; in assay [2], 9.12 nM.
With `N#CC1(NC(=O)[C@@H]2CCCC[C@H]2c2oc(-c3ccc(F)cc3)nc2-c2ccc(N3CCS(=O)(=O)CC3)c(Br)c2)CC1` [Example 102, (1R,2R)-2-(4-(3-bromo-4-(1,1-dioxidothiomorpholino)phenyl)-2-(4-fluorophenyl)oxazol-5-yl)-N-(1-cyanocyclopropyl) cyclohexanecarboxamide], the IC50 stood at 416 nM in assay [1] and 54.5 nM in assay [2].
In the case of `N#CC1(NC(=O)[C@@H]2CCCC[C@H]2c2oc(-c3ccc(F)cc3F)nc2-c2ccc(N3CCS(=N)(=O)CC3)cc2)CC1` [Example 106, (1R,2R)-N-(1-cyanocyclopropyl)-2-(2-(2,4-difluorophenyl)-4-(4-(1-imino-1-oxidothiomorpholino)phenyl)oxazol-5-yl)cyclohexanecarboxamide], the IC50 in assay [1] came to 192 nM; in assay [2], 1.59 nM.
On to `N#Cc1cccc(-c2nc(-c3ccc(N4CCS(=O)(=O)CC4)cc3)c([C@@H]3CCCC[C@H]3C(=O)NC3(C#N)CC3)o2)c1` [Example 93, (1R,2R)-N-(1-cyanocyclopropyl)-2-(2-(3-cyanophenyl)-4-(4-(1,1-dioxidothiomorpholino)phenyl)oxazol-5-yl)cyclohexanecarboxamide], for which the IC50 amounted to 1100 nM in assay [1] and 1.89 nM in assay [2].
With `N#CCNC(=O)[C@@H]1CCCC[C@H]1c1oc(-c2ccc(F)cc2F)nc1-c1ccc(N2CCS(=O)(=O)CC2)cc1` [Example 44, (1R,2R)-N-(cyanomethyl)-2-(2-(2,4-difluorophenyl)-4-(4-(1,1-dioxidothiomorpholino)phenyl)oxazol-5-yl)cyclohexanecarboxamide], the IC50 is 229 nM in assay [1] and 0.67 nM in assay [2].
As to `N#CC1(NC(=O)[C@@H]2CCCC[C@H]2c2oc(C(F)(F)C(F)(F)F)nc2-c2ccc(C(=O)N3CCOCC3)cc2)CC1` [Example 26, (1R,2R)-N-(1-cyanocyclopropyl)-2-(4-(4-(morpholine-4-carbonyl)phenyl)-2-(perfluoroethyl)oxazol-5-yl)cyclohexanecarboxamide], the IC50 in assay [1] is 2960 nM; in assay [2], 3.64 nM.
As to `N#CC1(NC(=O)[C@@H]2CCCC[C@H]2c2oc(C3CCC(C(F)(F)F)CC3)nc2-c2ccc(N3CCS(=O)(=O)CC3)cc2)CC1` (mixture of isomers) [Example 111, (1R,2R)-N-(1-cyanocyclopropyl)-2-(4-(4-(1,1-dioxidothiomorpholino)phenyl)-2-((1R,4R and 1S,4S)-4-(trifluoromethyl)cyclohexyl)oxazol-5-yl)cyclohexanecarboxamide], the IC50 is 1060 nM in assay [1] and 1.83 nM in assay [2].
